In one data set the test system is male mice. Put plainly: Sedative activity: Rotarod test. Format: in vivo. As to conditions: peroral, mice. The protocol:
This test is used for the purpose of assessing the ability of the animals to coordinate their movements. It uses a wooden cylinder which has a diameter of 4.8 cm and revolves at a speed of 4 revolutions/minute. The test is carried out on male mice weighing about 22 g. The products are administered perorally (p.o.) to batches of 10 animals per dose. The animals are placed on the apparatus 15 minutes after administration of the product. The percentage of mice which lose their equilibrium reflex, that is to say which become incapable of retaining their balance on the cylinder for a period of 2 minutes, is noted.
Using the regression straight line method, a 50% neurotoxic dose (NTD 50) is calculated, which thus expresses the average level of the first neuromuscular effects under the influence of the studied product.
(In the rotarod test animals must keep their balance on a rotating rod.)

For data set [1], the system named is mice. Description: Anoxia as a result of confinement. Format: in vivo. As to conditions: Mus musculus, ip, read-out: Anoxia as a result of confinement, % increase in the survival time. The protocol: Anoxia as a result of confinement
Mice (in batches of 20) are placed in a 200 cm^3 hermetically sealed chamber (a wide-mouthed glass vessel) which is under normal pressure and has a normal content of atmospheric oxygen. All of the treatments are administered intraperitoneally immediately before introduction into the chamber. The animal is considered to be dead at the moment when breathing stops.
Since the wide-mouthed vessels chosen are very small, the motor activity of the animals is extremely low and this eliminates, in principle, the possibility of a positive result due to a sedative effect.
Therefore, the percentage increase in the survival time of the treated animals is noted, relative to the batch.

In another data set the test system is mouse. Description: Ouabain seizure. It is filed as in vivo. As to conditions: po, 0.25 h, read-out: Ouabain seizure, ED50. The protocol:
Ouabain was administered intra-ventricularly at a dose of 5 γ/mouse in a volume of 0.02 ml.

The subject of the next data set is male OFl mice. Description: Pentetrazole seizure (mortality after i.p. pentetrazole 125 mg/kg). It is filed as in vivo. As to conditions: for Pentetrazole seizure, % protection: peroral, 15 minutes; for ED50: Mus musculus, po, 0.25 h, read-out: Pentetrazole seizure, ED50. Here is the method: This test was carried out on batches of 10 male OFl mice which had fasted since the day before and were placed in individual cages, in accordance with the method of Cheymol (J.) Acta. Pharmacol., (1950), 2, 1-55.
The treatments were carried out perorally 15 minutes before intraperitoneal (i.p.) injection of a solution of pentetrazole (125 mg/kg).
The mortality is recorded 3 hours after this injection.
It is to be noted that the 50% effective doses (ED50), where these have been determined, were calculated by the method of MOOD (J. Am. Statist. Assoc., (1965), 60, 967-78).

A short description of another data set: Acute toxicity, peroral. As to conditions: mouse, in vivo, po. Here is the method: In order to locate the boundary separating the pharmacological effects from the toxicity of the products, a very approximate assessment of the toxicity was carried out on mice (batches of 10 animals) after peroral treatment.
Data set [2] deals with mice. Description: β-Mercaptopropionic acid seizure. Format: in vivo. Conditions: Mus musculus, po, 0.25 h, read-out: β-Mercaptopropionic acid seizure, ED50. The protocol:
β-Mercaptopropionic acid seizure
β-Mercaptopropionic acid is an inhibitor of glutamatedecarboxylase (GAD), which is an enzyme which catalyses the conversion of glutamate to γ-aminobutyric acid (GABA). Its action thus manifests itself in a lowering of the GABA level and the occurrence of general tonico-clonic seizures 3 to 4 minutes after it has been administered. β-Mercaptopropionic acid was administered to mice intraperitoneally at a dose of 40 mg/kg.

A further data set deals with male Swiss mice. Put plainly: Maximum electrical seizure. It is filed as in vivo. As to conditions: for ED50: Mus musculus, po, 0.25 h, read-out: Maximum electrical seizure, ED50; for Maximum electrical seizure, % protection: peroral, 15 minutes. An excerpt: Maximum electrical seizure
The technique used is that recommended by GOODMAN (L. S.), SING-GREWALD (M.), BROWN (V. C.) and […] (E. A.), Am.
The animals tested are male Swiss mice grouped into batches of 10. The normal threshold of the electric shock which is capable of causing tonic extension of the front paws is first determined for each animal.

Setting [3] is: ouabain 5 γ/mouse intra-ventricularly, measured 15 minutes after peroral treatment.

The text below walks through data of patent US4283420A, “Pharmaceutically active cyclohexyl compounds and their preparation” (Labaz, priority 1978, dated 1981).

As usually defined, the ED50 is the midpoint of the dose-response relation. A word on the mortality: it is the percentage killed.

SMILES strings stand for the structures. Read-outs that look alike come from different tables or passages of the source.

With `C=C(Cl)C1(C(=O)O)CCCCC1` [Example 18], the “Rotarod test, % of failures” value with male mice (at 600 mg/kg) turned out to be 0%. For the same molecule, the ILS at 260 mg/kg in the data set with mice [1] (at 260 mg/kg, intraperitoneal, mice) was 40%. Besides, the ED50 with mouse (setting [3]) stood at 851 mg/kg. Further, the “Pentetrazole seizure, % protection” value in the data set on male OFl mice (at 200 mg/kg, mice) was found to be 40%.

Turning to `C=C(Cl)CC1(C(=O)O)CCCCC1` [Example 19], the “Rotarod test, % of failures” value in the data set on male mice (at 700 mg/kg) is given as 30%. This molecule also registered a mortality in “Acute toxicity, peroral” (1100 mg/kg) of 10%. For the same molecule, the ED50 in the data set on mice [2] (β-mercaptopropionic acid 40 mg/kg i.p., mice, 15 minutes after peroral treatment) turned out to be 300 mg/kg; with mouse (setting [3]) it was 579 mg/kg; in the data set with male Swiss mice (mice, measured 15 minutes after peroral treatment), 366 mg/kg; in the data set with male OFl mice (Table IV, mice, measured 15 minutes after peroral treatment), 94 mg/kg. Also, the ILS at 240 mg/kg in the data set on mice [1] (at 240 mg/kg, intraperitoneal, mice) was 45%.

With `C#CCC1(C(=O)[O-])CCCCC1.[Na+]`, in the data set on male mice (at 550 mg/kg), the “Rotarod test, % of failures” value is 40%. The mortality in the data set “Acute toxicity, peroral” (at 950 mg/kg, peroral, mice) came to 10%. Further, the ED50 in the data set on mice [2] is 245 mg/kg; with mouse (Mus musculus) it was 507 mg/kg; with male Swiss mice, 478 mg/kg; in the data set on male OFl mice, 120 mg/kg. The ILS at 280 mg/kg in the data set on mice [1] turned out to be 48%.

On to `C=CCC1(C(=O)[O-])CCCCC1.[Na+]` [Example 22, Sodium 1-allyl-1-cyclohexyl-carboxylate], for which the “Rotarod test, % of failures” value in the data set with male mice (at 600 mg/kg) is given as 20%. Moreover, in the data set with mice [1], the ILS at 240 mg/kg is 59%. Besides, the ED50 in the data set with mouse (setting [3]) came out at 638 mg/kg; in the data set on male OFl mice, 154 mg/kg. Further, in the data set with male Swiss mice (at 200 mg/kg, mice), the “Maximum electrical seizure, % protection” value is 80%.

As to `C#CC1(C(=O)O)CCCCC1` [Example 17], the “Rotarod test, % of failures” value with male mice (at 500 mg/kg) was 0%. Moreover, in the data set on mice [1] (at 210 mg/kg, intraperitoneal, mice), the ILS at 210 mg/kg is 23%. In addition, the ED50 in the data set on mouse (setting [3]) was determined as 933 mg/kg. Besides, in the data set with male Swiss mice (at 170 mg/kg, mice), the “Maximum electrical seizure, % protection” value came to 13%. The “Pentetrazole seizure, % protection” value in the data set on male OFl mice (at 170 mg/kg, mice) stood at 30%.
